Literature values in patent US20080085301A1, “Method for transdermal administration of antimicrobial medications” (priority 2005, published 2008).

Test system: Streptococcus pneumoniae
Settings: based on Streptococcus pneumoniae; in vitro
For `O=C(N[C@H](CO)[C@H](O)c1ccc([N+](=O)[O-])cc1)C(Cl)Cl` [Chloramphenicol], the “Approximate MIC” value is given as ~4 µg/mL.
For `N[C@@H]1CON=C1O` [Cycloserine], the “Approximate MIC” value is given as ~32 µg/mL.
In the case of `CCCCCCCCCC(=O)N[C@@H](Cc1c[nH]c2ccccc12)C(=O)N[C@H](CC(N)=O)C(=O)N[C@@H](CC(=O)O)C(=O)N[C@@H]1C(=O)NCC(=O)N[C@@H](CCCN)C(=O)N[C@@H](CC(=O)O)C(=O)N[C@H](C)C(=O)N[C@@H](CC(=O)O)C(=O)NCC(=O)N[C@H](CO)C(=O)N[C@@H]([C@H](C)CC(=O)O)C(=O)N[C@@H](CC(=O)c2ccccc2N)C(=O)O[C@@H]1C` [Daptomycin], the “Approximate MIC” value is given as ~0.5 µg/mL.
For `CC(=O)NC[C@H]1CN(c2ccc(N3CCOCC3)c(F)c2)C(=O)O1` [Linezolid], the “Approximate MIC” value is given as ~2 µg/mL.
In the case of `C[C@@H](O)[C@H]1C(=O)N2C(C(=O)O)=C(S[C@@H]3CN[C@H](C(=O)N(C)C)C3)[C@H](C)[C@H]12` [Meropenem], the “Approximate MIC” value is given as ~1 µg/mL.
In the case of `CO[C@H]1/C=C/O[C@@]2(C)Oc3c(C)c(O)c4c(O)c(c(/C=N/N5CCN(C)CC5)c(O)c4c3C2=O)NC(=O)/C(C)=C\C=C\[C@H](C)[C@H](O)[C@@H](C)[C@@H](O)[C@@H](C)[C@H](OC(C)=O)[C@@H]1C` [Rifampin], the “Approximate MIC” value is given as ~0.5 µg/mL.
For `[H]/N=C(/N)N[C@H]1[C@H](O)[C@@H](O)[C@H](O[C@@H]2O[C@@H](C)[C@](O)(C=O)[C@H]2O[C@@H]2O[C@@H](CO)[C@H](O)[C@@H](O)[C@@H]2NC)[C@@H](N/C(N)=N\[H])[C@@H]1O` [Streptomycin], the “Approximate MIC” value is given as ~2 µg/mL.
For `CN[C@H](CC(C)C)C(=O)N[C@H]1C(=O)N[C@@H](CC(N)=O)C(=O)N[C@H]2C(=O)N[C@H]3C(=O)N[C@H](C(=O)N[C@H](C(=O)O)c4cc(O)cc(O)c4-c4cc3ccc4O)[C@H](O)c3ccc(c(Cl)c3)Oc3cc2cc(c3O[C@@H]2O[C@H](CO)[C@@H](O)[C@H](O)[C@H]2O[C@H]2C[C@](C)(N)[C@H](O)[C@H](C)O2)Oc2ccc(cc2Cl)[C@H]1O` [Vancomycin], the “Approximate MIC” value is given as ~16 µg/mL.
